In PubChem BioAssay (NCI):
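Values below derive from 48-hour exposures of cells grown in 96-well plates, with endpoints linearly interpolated between the two concentrations bracketing the appropriate inhibition level. TGI marks complete inhibition of growth.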

Experiments:
Test in all cases: DTP human tumour cell line panel, 48 h
SW-620 colon = system: SW-620 colon
UACC-257 melanoma = system: UACC-257 melanoma
SN12C renal = system: SN12C renal
NCI-H226 lung = system: NCI-H226 lung
MCF7 breast = system: MCF7 breast
KM12 colon = system: KM12 colon
SF-268 CNS = system: SF-268 CNS
OVCAR-5 ovarian = system: OVCAR-5 ovarian
HL-60(TB) leukemia = system: HL-60(TB) leukemia
MDA-MB-231 breast = system: MDA-MB-231 breast
BT-549 breast = system: BT-549 breast
NCI-H23 lung = system: NCI-H23 lung
EKVX NSCLC = system: EKVX NSCLC
IGROV1 ovarian = system: IGROV1 ovarian
U251 CNS = system: U251 CNS
M14 melanoma = system: M14 melanoma
HOP-92 NSCLC = system: HOP-92 NSCLC
RPMI-8226 leukemia = system: RPMI-8226 leukemia
HCT-15 colon = system: HCT-15 colon
LOX IMVI melanoma = system: LOX IMVI melanoma
A549 NSCLC = system: A549 NSCLC
SK-MEL-5 melanoma = system: SK-MEL-5 melanoma
SK-MEL-28 melanoma = system: SK-MEL-28 melanoma
TK-10 renal = system: TK-10 renal
UACC-62 melanoma = system: UACC-62 melanoma
COLO 205 colon = system: COLO 205 colon
PC-3 prostate = system: PC-3 prostate
HCT-116 colon = system: HCT-116 colon
T-47D breast = system: T-47D breast
ACHN renal = system: ACHN renal
HS 578T breast = system: HS 578T breast
NCI-H522 lung = system: NCI-H522 lung
OVCAR-4 ovarian = system: OVCAR-4 ovarian
NCI/ADR-RES ovarian = system: NCI/ADR-RES ovarian
NCI-H460 lung = system: NCI-H460 lung
OVCAR-3 ovarian = system: OVCAR-3 ovarian
RXF 393 renal = system: RXF 393 renal
HOP-62 NSCLC = system: HOP-62 NSCLC
SNB-75 CNS = system: SNB-75 CNS
MALME-3M melanoma = system: MALME-3M melanoma
MOLT-4 leukemia = system: MOLT-4 leukemia
SK-MEL-2 melanoma = system: SK-MEL-2 melanoma
K-562 leukemia = system: K-562 leukemia
SNB-19 CNS = system: SNB-19 CNS
HT29 colon = system: HT29 colon
SF-295 CNS = system: SF-295 CNS
786-0 renal = system: 786-0 renal
UO-31 renal = system: UO-31 renal
SK-OV-3 ovarian = system: SK-OV-3 ovarian
MDA-MB-435 = system: MDA-MB-435
CCRF-CEM leukemia = system: CCRF-CEM leukemia
CAKI-1 renal = system: CAKI-1 renal
SR leukemia = system: SR leukemia
OVCAR-8 ovarian = system: OVCAR-8 ovarian
DU-145 prostate = system: DU-145 prostate
A498 renal = system: A498 renal
SF-539 CNS = system: SF-539 CNS
MDA-N = system: MDA-N

O=C(c1ccc([N+](=O)[O-])cc1)C(Br)C(Br)c1ccnc2ccccc12 (stereo not given)
TGI (SW-620 colon): 5.61 µM | TGI (UACC-257 melanoma): 14.6 µM | TGI (SN12C renal): 14.4 µM | TGI (NCI-H226 lung): 33.6 µM | TGI (MCF7 breast): 8.86 µM | TGI (KM12 colon): 5.13 µM | TGI (SF-268 CNS): 45.2 µM | TGI (OVCAR-5 ovarian): 33 µM | TGI (HL-60(TB) leukemia): 9.99 µM | TGI (MDA-MB-231 breast): 27.8 µM | TGI (BT-549 breast): 20 µM | TGI (NCI-H23 lung): > 21.9 µM | TGI (EKVX NSCLC): 34.3 µM | TGI (IGROV1 ovarian): 30 µM | TGI (U251 CNS): 4.13 µM | TGI (M14 melanoma): 9.81 µM | TGI (HOP-92 NSCLC): 28.8 µM | TGI (RPMI-8226 leukemia): 5.91 µM | TGI (HCT-15 colon): 27.3 µM | TGI (LOX IMVI melanoma): 4.71 µM | TGI (A549 NSCLC): 30.5 µM | TGI (SK-MEL-5 melanoma): 20 µM | TGI (SK-MEL-28 melanoma): 30.8 µM | TGI (TK-10 renal): 12.6 µM | TGI (UACC-62 melanoma): 24.6 µM | TGI (COLO 205 colon): 28.9 µM | TGI (PC-3 prostate): 21.1 µM | TGI (HCT-116 colon): 4.04 µM | TGI (T-47D breast): > 56.6 µM | TGI (ACHN renal): 17 µM | TGI (HS 578T breast): > 27.2 µM | TGI (NCI-H522 lung): 6.32 µM | TGI (OVCAR-4 ovarian): 25.5 µM | TGI (NCI/ADR-RES ovarian): > 71.7 µM | TGI (NCI-H460 lung): 13.8 µM | TGI (OVCAR-3 ovarian): 23.1 µM | TGI (RXF 393 renal): 21.2 µM | TGI (HOP-62 NSCLC): 29.7 µM | TGI (SNB-75 CNS): 13.1 µM | TGI (MALME-3M melanoma): 25.4 µM | TGI (MOLT-4 leukemia): 14.7 µM | TGI (SK-MEL-2 melanoma): 26.4 µM | TGI (K-562 leukemia): > 33.3 µM | TGI (SNB-19 CNS): 30.8 µM | TGI (HT29 colon): 11.7 µM | TGI (SF-295 CNS): 21.1 µM | TGI (786-0 renal): 7.44 µM | TGI (UO-31 renal): 3.58 µM | TGI (SK-OV-3 ovarian): 32.1 µM | TGI (MDA-MB-435): 7.85 µM | TGI (CCRF-CEM leukemia): 2.11 µM | TGI (CAKI-1 renal): 24.6 µM | TGI (SR leukemia): 5.69 µM | TGI (OVCAR-8 ovarian): 42.3 µM | TGI (DU-145 prostate): 24.4 µM | TGI (A498 renal): 25.7 µM | TGI (SF-539 CNS): 15.3 µM

CC(O)(C#N)CC(O)(C(F)(F)Cl)C(F)(F)Cl (stereo not given)
TGI (SW-620 colon): > 10 µM | TGI (SN12C renal): > 10 µM | TGI (NCI-H226 lung): > 10 µM | TGI (KM12 colon): > 10 µM | TGI (SF-268 CNS): > 10 µM | TGI (OVCAR-5 ovarian): > 10 µM | TGI (MDA-MB-231 breast): > 10 µM | TGI (NCI-H23 lung): > 10 µM | TGI (EKVX NSCLC): > 10 µM | TGI (IGROV1 ovarian): > 10 µM | TGI (U251 CNS): > 10 µM | TGI (M14 melanoma): > 10 µM | TGI (HOP-92 NSCLC): > 10 µM | TGI (HCT-15 colon): > 10 µM | TGI (A549 NSCLC): > 10 µM | TGI (SK-MEL-5 melanoma): > 10 µM | TGI (SK-MEL-28 melanoma): > 10 µM | TGI (TK-10 renal): > 10 µM | TGI (COLO 205 colon): > 10 µM | TGI (PC-3 prostate): > 10 µM | TGI (HCT-116 colon): > 10 µM | TGI (ACHN renal): > 10 µM | TGI (OVCAR-4 ovarian): > 10 µM | TGI (NCI/ADR-RES ovarian): > 10 µM | TGI (OVCAR-3 ovarian): > 10 µM | TGI (RXF 393 renal): > 10 µM | TGI (SNB-75 CNS): > 10 µM | TGI (SNB-19 CNS): > 10 µM | TGI (HT29 colon): > 10 µM | TGI (SF-295 CNS): > 10 µM | TGI (UO-31 renal): > 10 µM | TGI (MDA-MB-435): > 10 µM | TGI (MDA-N): > 10 µM | TGI (CAKI-1 renal): > 10 µM | TGI (OVCAR-8 ovarian): > 10 µM | TGI (DU-145 prostate): > 10 µM | TGI (A498 renal): > 10 µM | TGI (SF-539 CNS): > 10 µM
